The structures appear in SMILES notation. Where a SMILES comes first, the peptide text is derived from it. [ ]: non-standard residue; d: D form. Phe(4-CF3) = N[C@@H](Cc1ccc(C(F)(F)F)cc1)C(=O)O; Phe(4-Br) = N[C@@H](Cc1ccc(Br)cc1)C(=O)O; Phe(4-F) = N[C@@H](Cc1ccc(F)cc1)C(=O)O; Pen = CC(C)(S)[C@H](N)C(=O)O; hLeu = CC(C)CC[C@H](N)C(=O)O; hCys = N[C@@H](CCS)C(=O)O; Nle = CCCC[C@H](N)C(=O)O; Nva = CCC[C@H](N)C(=O)O; Abu = CC[C@H](N)C(=O)O Bounds are passed on as bounds.

One may read the Kd as the constant that tells how readily two partners part at equilibrium.

The target in the first test is T1, HIF-1α PAS-B domain (Homo sapiens, UniProt Q16665).
T1 construct: made in house
T1 sequence (Q16665 238-349 limits assumed): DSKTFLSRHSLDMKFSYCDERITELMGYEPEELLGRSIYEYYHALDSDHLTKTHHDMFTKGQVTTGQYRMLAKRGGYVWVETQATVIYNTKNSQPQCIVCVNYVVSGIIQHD
The experiment in a line: MST binding to the PAS-B domain of HIF-1α. Conditions: MST; mean ± SEM, n = 2 (n = 1 for most C1 analogues, n = 3 in Figure S2); read-out: KD for HIF-1α PAS-B. How it is done: (§1) All reagents were purchased from Fisher Scientific or Sigma Aldrich UK unless specified otherwise.
(§2) Restriction enzymes and microbiology reagents were purchased from New England Biolabs Inc., Fisher Scientific (UK) or Promega (UK) and were used as directed by the manufacturer. Primers and oligonucleotides were synthesised by Integrated DNA Technologies (UK). DNA sequencing was carried out by Eurofins MWG Operon (Germany).
(§3) Construction of the RTHS and SICLOPPS library, screening, purification of recombinant HIF proteins, and the PLA was conducted as previously described in Miranda et al., J. Am. Chem. Soc., 2013, 135(28); […]
(§4) Protein labelling with MST dye
(§5) Protein was buffer exchanged from storage buffer into labelling buffer (0.1 M NaHCO3, pH 8.5) using a PD spintrap G-25 column (GE healthcare). The protein concentration was then adjusted to 20 µM.
(§6) The commercially sourced MST dye (NanoTemper) was prepared as a 470 µM solution in DMSO, which was then further diluted to 60 µM using labelling buffer. To the protein solution was added an equal volume of dye solution, and the labelling reaction was left for 1 hour in the dark at room temperature.
(§7) The labelled protein was separated from unreacted dye by elution through a PD minitrap G-25 column (GE healthcare). Labelled protein was then aliquoted and stored at -80 °C. Extent of labelling was measured by the absorbance obtained using the UV-vis mode on a NanoDrop ND-1000 Spectrophotometer (NanoDrop Technologies, USA).
(§8) Labelled protein was thawed on ice and diluted to 50 nM in assay buffer containing 50 mM Tris pH 8.0, 150 mM NaCl, 5% (v/v) glycerol, 1 mM TCEP and 0.05% TWEEN-20. The protein solution was then centrifuged at 12000 rpm for 15 minutes at 4 °C and left on ice. Compounds were prepared and serially diluted in DMSO at 10x assay concentration, before diluting to 2x assay concentration in assay buffer.
(§9) The 2x compound solutions were then mixed 1:1 (v/v) with 50 nM labelled protein solution and left to incubate for 1 hour at room temperature. Solutions were then loaded into Monolith NT.115 Premium Capillaries (NanoTemper) and placed in the sample tray. MST experiments were carried out
As to `CC[C@H](C)[C@@H]1NC(=O)[C@H](CC(C)C)NC(=O)[C@H](CCCNC(=N)N)NC(=O)[C@H](C(C)(C)S)NC(=O)[C@H](Cc2ccccc2)NC(=O)[C@H]([C@@H](C)CC)NC1=O` [Pen, cyclo-PenRLIIF] (cyclo(F[Pen]RLII)), the Kd is 5.7 ± 0.9 µM.
Same read-out and setting: the figure for `CC[C@H](C)[C@@H]1NC(=O)[C@H](CC(C)C)NC(=O)[C@H](CCCNC(=N)N)NC(=O)[C@H](CS)NC(=O)[C@H](Cc2ccccc2)NC(=O)[C@H](CCC(C)C)NC1=O` [hL, cyclo-CRLIhLF] (cyclo(CRLI[hLeu]F)) is 4.4 ± 1.3 µM; for `CCC[C@@H]1NC(=O)[C@H]([C@@H](C)CC)NC(=O)[C@H](CC(C)C)NC(=O)[C@H](CCCNC(=N)N)NC(=O)[C@H](CS)NC(=O)[C@H](Cc2ccccc2)NC1=O` [Nva, cyclo-CRLINvaF] (cyclo(CRLI[Nva]F)) it is 22.1 ± 2.6 µM; for `CCCC[C@@H]1NC(=O)[C@H]([C@@H](C)CC)NC(=O)[C@H](CC(C)C)NC(=O)[C@H](CCCNC(=N)N)NC(=O)[C@H](CS)NC(=O)[C@H](Cc2ccccc2)NC1=O` [Nle, cyclo-CRLINleF] (cyclo(CRLI[Nle]F)) it is 7.5 ± 0.9 µM.
For the compound `CC[C@H](C)[C@@H]1NC(=O)[C@H](CC(C)C)NC(=O)[C@H](CCCNC(=N)N)NC(=O)[C@H](CO)NC(=O)[C@H](Cc2ccccc2)NC(=O)[C@H]([C@@H](C)CC)NC1=O` [S, cyclo-SRLIIF] (cyclo(FSRLII)), the equilibrium dissociation constant (Kd) was over 100 µM.
The same measure, in the same setting: the result for `CC[C@H](C)[C@@H]1NC(=O)[C@H](CC(C)C)NC(=O)[C@H](CCCNC(=N)N)NC(=O)[C@H](CS)NC(=O)[C@H](Cc2ccc(F)cc2)NC(=O)[C@H]([C@@H](C)CC)NC1=O` [F, cyclo-CRLII(4-F)F] (cyclo(CRLII[Phe(4-F)])) reads 1.7 ± 0.2 µM.
The same measure, in the same setting: the figure for `CC[C@@H]1NC(=O)[C@H]([C@@H](C)CC)NC(=O)[C@H](CC(C)C)NC(=O)[C@H](CCCNC(=N)N)NC(=O)[C@H](CS)NC(=O)[C@H](Cc2ccccc2)NC1=O` [Abu, cyclo-CRLIAbuF] (cyclo([Abu]FCRLI)) is 73.4 ± 4.8 µM.
On to `CC[C@H](C)[C@@H]1NC(=O)[C@H](CC(C)C)NC(=O)[C@H](CCCNC(=N)N)NC(=O)[C@H](CS)NC(=O)[C@H](Cc2ccc(C(F)(F)F)cc2)NC(=O)[C@H]([C@@H](C)CC)NC1=O` [CF3, cyclo-CRLII(4-CF3)F] (cyclo(CRLII[Phe(4-CF3)])), for which the equilibrium dissociation constant (Kd) came to 1.1 ± 0.5 µM.
On the same count and under the same terms, the figure for `CC[C@H](C)[C@@H]1NC(=O)[C@H](CC(C)C)NC(=O)[C@H](CCCNC(=N)N)NC(=O)[C@H](CCS)NC(=O)[C@H](Cc2ccccc2)NC(=O)[C@H]([C@@H](C)CC)NC1=O` [hC, cyclo-hCRLIIF] (cyclo(F[hCys]RLII)) is over 50 µM; for `CC[C@H](C)[C@@H]1NC(=O)[C@H](CC(C)C)NC(=O)[C@H](CCCNC(=N)N)NC(=O)[C@H](CS)NC(=O)[C@H](Cc2ccc(O)cc2)NC(=O)[C@H]([C@@H](C)CC)NC1=O` [OH, cyclo-CRLIIY] (cyclo(CRLIIY)) it is 7.4 ± 0.1 µM; for `CC[C@H](C)[C@@H]1NC(=O)[C@H](CC(C)C)NC(=O)[C@H](CCCNC(=N)N)NC(=O)[C@H](CCSC)NC(=O)[C@H](Cc2ccccc2)NC(=O)[C@H]([C@@H](C)CC)NC1=O` [M, cyclo-MRLIIF] (cyclo(FMRLII)) it is over 100 µM.
For `CC[C@H](C)[C@@H]1NC(=O)[C@H](CC(C)C)NC(=O)[C@H](CCCNC(=N)N)NC(=O)[C@H](CS)NC(=O)[C@H](Cc2ccc(Br)cc2)NC(=O)[C@H]([C@@H](C)CC)NC1=O` [Br, cyclo-CRLII(4-Br)F] (cyclo(CRLII[Phe(4-Br)])), the Kd came out at 1 ± 0.2 µM.
On the same count and under the same terms, the result for `CC[C@H](C)[C@@H]1NC(=O)[C@H](CC(C)C)NC(=O)[C@H](CCCNC(=N)N)NC(=O)[C@H](CS)NC(=O)[C@H](Cc2ccccc2)NC(=O)[C@H](C(C)C)NC1=O` [V, cyclo-CRLIVF] (cyclo(CRLIVF)) reads 15.9 ± 0.3 µM.

A further test deals with T2, HIF-2α PAS-B domain (Homo sapiens, UniProt Q99814).
T2 construct: made in house
T2 sequence (Q99814 240-350 limits assumed): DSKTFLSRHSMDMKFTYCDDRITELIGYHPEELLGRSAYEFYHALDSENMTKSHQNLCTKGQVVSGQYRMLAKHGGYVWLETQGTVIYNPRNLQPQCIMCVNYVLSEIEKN
The test can be described thus: MST binding to the PAS-B domain of HIF-2α. The following applies: MST; mean (n = 2) ± SEM. Here is the method: as §1, §2, §3, §4, §5, §6, §7, §8, §9
As for `CC[C@H](C)[C@@H]1NC(=O)[C@H](CC(C)C)NC(=O)[C@H](CCCNC(=N)N)NC(=O)[C@H](CS)NC(=O)[C@H](Cc2ccccc2)NC(=O)[C@H]([C@@H](C)CC)NC1=O` [cyclo-CRLIIF] (cyclo(CRLIIF)), the Kd was determined as 10.9 ± 1.1 µM.
